The nature of series [1]: Binding affinity to CLPB E276A/E678A mutant (unknown origin)-alpha-casein complex expressed in Escherichia coli MC4100 at 0.1 to 1000 uM by titrimetric analysis.
A short description of series [2]: Binding affinity to CLPB (unknown origin) expressed in Escherichia coli MC4100 assessed as change in melting temperature at 100 to 200 uM after 30 mins by DSF analysis in presence of ATP. Background: Differential scanning fluorimetry follows unfolding on heating by fluorescence.
Series [3] can be described thus: Inhibition of CLPB (unknown origin) expressed in Escherichia coli MC4100 at 1 to 100 uM by spectrophotometric analysis.
A short description of series [4]: Binding affinity to CLPB (unknown origin) expressed in Escherichia coli MC4100 assessed as change in melting temperature at 100 to 200 uM after 30 mins by DSF analysis in presence of ATPgammaS.
Series [5] can be described thus: Inhibition of DNAK (unknown origin) assessed as reactivation of luciferase aggregates after 2 hrs.
A short description of series [6]: Binding affinity to CLPB (unknown origin) expressed in Escherichia coli MC4100 assessed as change in melting temperature at 100 to 200 uM after 30 mins by DSF analysis.
Series [7] can be described thus: Inhibition of DNAK/CLPB (unknown origin) assessed as reactivation of malate dehydrogenase aggregates after 2 hrs.
Series [8] can be described thus: Inhibition of DNAK/CLPB (unknown origin) assessed as reactivation of malate dehydrogenase aggregates after 2 hrs in presence of Tween 80.
Series [9] can be described thus: Inhibition of CLPB (unknown origin) expressed in Escherichia coli MC4100 using alpha-casein as substrate at 1 to 100 uM by spectrophotometric analysis.
Series [10] can be described thus: Binding affinity to CLPB (unknown origin) expressed in Escherichia coli MC4100 assessed as change in melting temperature at 100 to 200 uM after 30 mins by DSF analysis in presence of ADP.
Series [11] is described as follows: Inhibition of DNAK (unknown origin) assessed as reactivation of luciferase aggregates after 2 hrs in presence of Tween 80.
Series [12] concerns Escherichia coli. As to the kind of experiment: Antibacterial activity against Escherichia coli BL21(DE3) assessed as growth inhibition at 37 degC after 24 hrs by two-fold dilution method. In kind it is functional.
Series [13] relates to Escherichia coli. As to the kind of experiment: Antibacterial activity against CLPB-deleted Escherichia coli MC4100 assessed as reduction of CFU count at 300 uM at 37 degC after 24 hrs by two-fold dilution method in presence of paraquat. In kind it is functional, organism-based.
The nature of series [14]: Reduction of ATPase activity of DNAK (unknown origin) at 100 uM by spectrophotometric analysis.
In series [15] the test system is Escherichia coli. As to the kind of experiment: Antibacterial activity against Escherichia coli MC4100 assessed as reduction of CFU count at 300 uM at 42 degC after 24 hrs by two-fold dilution method. Type of series: functional.
Series [16] deals with Escherichia coli. The series can be described thus: Antibacterial activity against CLPB-deleted Escherichia coli MC4100 assessed as reduction of CFU count at 300 uM at 37 degC after 24 hrs by two-fold dilution method. In kind it is functional, organism-based.
Series [17] has as its system Escherichia coli. The series can be described thus: Antibacterial activity against Escherichia coli MC4100 assessed as growth inhibition at 37 degC after 24 hrs by two-fold dilution method. Type of series: functional, organism-based.
Series [18] is described as follows: Binding affinity to CLPB E276A/E678A mutant (unknown origin) expressed in Escherichia coli MC4100 at 80 uM in presence of alpha-casein by spectrofluorimetric analysis.
Series [19] in a line: Inhibition of ATPase activity of CLPB (unknown origin) expressed in Escherichia coli MC4100 using 10 uM alpha-casein as substrate at 1 to 100 uM by spectrophotometric analysis.
Series [20] can be described thus: Binding affinity to CLPB (unknown origin) expressed in Escherichia coli MC4100 up to 400 seconds by surface plasmon resonance analysis. Background: SPR reads the build-up and loss of mass on a sensor chip optically.
Series [21] in a line: Effect on ATPase activity of DNAK (unknown origin) using ALLQSRLLLSAPRRAAATARY as substrate at 100 uM by spectrofluorimetric analysis.
The subject of series [22] is Escherichia coli. The series can be described thus: Antibacterial activity against Escherichia coli BL21(DE3) assessed as growth inhibition at 0.1 to 1000 uM at 37 to 47 degC after 24 hrs by two-fold dilution method in presence of paraquat. In kind it is functional.
Series [23] can be described thus: Binding affinity to CLPB E276A/E678A mutant (unknown origin) expressed in Escherichia coli MC4100 assessed as change in melting temperature by DSF analysis.
A short description of series [24]: Reduction of ATPase activity of DNAK (unknown origin) using ALLQSRLLLSAPRRAAATARY as substrate at 100 uM by spectrophotometric analysis relative to control in presence of cochaperone DnaJ.
Series [25] concerns Escherichia coli. The series can be described thus: Antibacterial activity against CLPB-deleted Escherichia coli MC4100 assessed as growth inhibition at 37 degC after 24 hrs by two-fold dilution method. Type of series: functional, organism-based.
Series [26] can be described thus: Binding affinity to CLPB hexamer (unknown origin) expressed in Escherichia coli MC4100 at 100 uM by sedimentation equilibrium analysis.
Series [27] relates to Escherichia coli. As to the kind of experiment: Antibacterial activity against Escherichia coli BL21(DE3) assessed as growth inhibition at 42 degC after 24 hrs by two-fold dilution method in presence of paraquat. Type of series: functional.
Series [28] concerns Escherichia coli. As to the kind of experiment: Antibacterial activity against Escherichia coli MC4100 assessed as growth inhibition at 0.1 to 1000 uM at 37 to 47 degC after 24 hrs by two-fold dilution method in presence of paraquat. In kind it is functional, organism-based.
Series [29] relates to Escherichia coli. The series can be described thus: Antibacterial activity against Escherichia coli MC4100 assessed as growth inhibition at 42 degC after 24 hrs by two-fold dilution method in presence of paraquat. In kind it is functional. The conditions noted are these: MC4100, 24 h.
The nature of series [30]: Reduction of ATPase activity of DNAK (unknown origin) using ALLQSRLLLSAPRRAAATARY as substrate at 100 uM by spectrophotometric analysis relative to control in presence of cochaperone GrpE.
A short description of series [31]: Inhibition of ATPase activity of CLPB (unknown origin) expressed in Escherichia coli MC4100 using 20 to 100 uM alpha-casein as substrate at 1 to 100 uM by spectrophotometric analysis.
Series [32] in a line: Cytotoxicity against human HeLa cells assessed as cell viability at 40 to 100 uM after 72 hrs by tetrazolium reduction assay relative to control. In kind it is cell-based. Particulars: read-out: Activity.
The subject of series [33] is Escherichia coli. As to the kind of experiment: Antibacterial activity against CLPB-deleted Escherichia coli MC4100 assessed as growth inhibition at 0.1 to 1000 uM at 37 to 47 degC after 24 hrs by two-fold dilution method in presence of paraquat. In kind it is functional, organism-based.
Series [34] in a line: Cytotoxicity against CHO cells assessed as cell viability at 40 to 100 uM after 72 hrs by tetrazolium reduction assay relative to control. Type of series: cell-based, Cricetulus griseus. The conditions noted are these: chinese hamster, read-out: Activity.
The test system of series [35] is Escherichia coli. The series can be described thus: Antibacterial activity against Escherichia coli MC4100 assessed as reduction of CFU count at 300 uM at 37 degC after 24 hrs by two-fold dilution method in presence of paraquat. In kind it is functional.
Series [36] relates to Escherichia coli. The series can be described thus: Antibacterial activity against TolC-deleted Escherichia coli JLS1015 at 37 to 47 degC after 7 hrs by two-fold dilution method. Type of series: functional. The conditions noted are these: JLS1015, 7 h.

SMILES strings stand for the structures. pIC50, pKd: −log10 of the molar value. Values after ≈ are worked out from the molar mass of the structure shown. Active and inactive are the calls of the source. The calls are words filed in the database; no cut-off is given here.

The text below walks through data of ChEMBL document CHEMBL2424520, “Screening and evaluation of small organic molecules as ClpB inhibitors and potential antimicrobials” (J Med Chem, 2013).

A word on the ΔTm: it is the shift of the melting midpoint relative to a reference. For orientation: pIC50 means the IC50 on a negative log10 scale, so that one unit is a factor of ten. Take `CCn1c(=O)c(C(=O)Nc2cccc(O)c2)c(O)c2ccccc21`: the result in [1] was inactive. Also, the shift in melting temperature (ΔTm) is 2.2 °C in [2], -0.8 °C in series [4], -0.8 °C in [6] and 1.5 °C in series [10]. Further, the inhibition entry in series [3] and in [9] was “Active” throughout. Further, the negative-log IC50 (pIC50) in [5] is below 4.00; in [7], 4.19; in series [8], 4.40; in series [11], below 4.00.
For orientation: MIC means the least concentration at which growth counts as inhibited. Regarding `CC1(C)S[C@@H]2[C@H](NC(=O)[C@H](N)c3ccccc3)C(=O)N2[C@H]1C(=O)O` [AMPICILLIN], in series [12], the MIC is 2 µM (≈ 0.699 µg/mL).
One may read the pKd as the negative decadic logarithm of the Kd, by convention in mol/L. For `O=Cc1cc(Cc2ccccc2Cl)cc([N+](=O)[O-])c1O`, the result in series [13], in [16] and in series [21] was inactive. Further, the outcome in series [14], in series [1], in series [18] and in series [26] was Active. The thermal shift (ΔTm) in [2] is 7.2 °C; in [4] it was 4.9 °C; in series [6] it was 8.1 °C; in [10], 6.7 °C. For the same molecule, the log10cfu in [15] and in [35] was 2 each time. Further, the negative logarithm of the IC50 (pIC50) is 5.40 in series [5], 5.15 in series [7], 5.22 in [8] and 5.22 in series [11]. The “growth inhibition (GI)” value in series [17], in [22], in series [25] and in series [28] was “Active” each time. Also, the inhibition result in [19] and in series [31] was “Active” in each case. Also, the values for the pKd in series [20] and in series [23] were 4.89 and 4.92, respectively. Also, the fold change (FC) in series [24] and in series [30] was 7 each time. For the same molecule, the minimum inhibitory concentration (MIC) in [27] came to 60 µM; in series [29], 60 µM; in series [36], 5 µM (≈ 1.46 µg/mL). For the same molecule, the viability at 72 h, up to 100 µM in [32] and in series [34] was 50% in each case. Besides, the “growth inhibition (GI)” value in [33] was “inactive”.
